Test results from US8354417B2, “Solid forms comprising 3-(2,5-dimethyl-4-oxo-4H-quinazolin-3-yl)-piperidine-2,6-dione, compositions comprising the same, and methods of using the same” (Celgene Corporation, priority 2007, dated 2013).
≈ marks a conversion by molar mass, not a printed value. Entries after “also recorded” stand apart in the source; their conditions may differ.

Experiments:
[1] = Approximate measured solubility in solvents at 25° C.; format: physicochemical; conditions: at least 24 hours; for solubility: 25 °C, thermodynamic from solid
Procedure: The solubility of Form A was investigated in a number of solvents at ambient conditions. Solubility measurements were obtained by adding solvent (either HPLC grade or reagent grade) to a carefully weighed (approximately 100 mg) sample of Form A. The resulting mixture was agitated for at least 24 hours at 25° C. The solubility was estimated based on the total volume of solvent required to give a complete solution. In addition, a known volume of filtrate was evaporated to dryness and the weight of the residue was measured.
The solubility of Form B was investigated in a number of solvents at ambient conditions. Solubility measurements were obtained by adding solvent (either HPLC grade or reagent grade) to a carefully weighed (approximately 100 mg) sample of Form B. The resulting mixture was agitated for at least 24 hours at 25° C. The solubility was estimated based on the total volume of solvent required to give a complete solution. In addition, a known volume of filtrate was evaporated to dryness and the weight of the residue was measured.

[2] = Stability on exposure to 40° C./75% RH for four weeks (XRPD); format: physicochemical; conditions: 40° C./75% RH environment
Procedure: The stability of Form A was investigated by exposing a sample of Form A to a 40° C./75% RH environment for four weeks.
The stability of Form B was investigated by exposing a sample of Form B to a 40° C./75% RH environment for four weeks.
(§1) X-ray powder diffraction (XRPD) analysis was conducted using a Thermo ARL X'TRA X-ray powder diffractometer using CuKα radiation at 1.54 Å. The instrument was equipped with a fine focus X-ray tube. The voltage and amperage of the X-ray generator were set at 45 kV and 40 mA, and the measuring slits were set at 0.5 mm and 0.2 mm. Diffracted radiation was measured using a Peltier-cooled Si (Li) solid-state detector. A theta-two theta continuous scan at 2.40°/min (0.5 sec/0.02° step) from 1.5°2θ to 40°2θ was used. A sintered alumina standard was used as a reference.

[3] = Stability of slurry in solvents at 40° C. for four weeks; format: physicochemical
Procedure: The stability of Form A was further investigated by storing a slurry of Form A in each of the following solvents at 40° C. for four weeks: acetone; acetonitrile; ethanol; heptane; 2-propanol; methyl t-butyl ether; methanol; water; and ethanol/water (1/1). The Form A material was stable in acetone; acetonitrile; ethanol; heptane; 2-propanol; methyl t-butyl ether; and methanol.
The stability of Form B was further investigated by storing a slurry of Form B in the following solvents at 40° C. for four weeks: acetone; acetonitrile; ethanol; heptane; 2-propanol; methyl t-butyl ether; methanol; water; and ethanol/water (1/1). The Form B material was stable in heptane; methyl t-butyl ether; water; and ethanol/water (1/1).

[4] = Compression testing, 2,000 psi for approximately 1 minute (XRPD); format: physicochemical; conditions: 2,000 psi pressure
Procedure: The stability of Form A was further investigated using compression testing. Compression testing of Form A was carried out by applying 2,000 psi pressure to a sample of Form A for approximately 1 minute, followed by analysis for stability using X-ray powder diffraction.
The stability of Form B was further investigated using compression testing. Compression testing of Form B was carried out by applying 2,000 psi pressure to a sample of Form B for approximately 1 minute, followed by analysis for stability using X-ray powder diffraction.
as §1

[5] = Moisture sorption/desorption by Dynamic Vapor Sorption (DVS); format: physicochemical; conditions: for Mass change relative to the dry mass: DVS, RH increased from 0% to 95% RH (25° C. per general method); for Weight at the end of the desorption cycle: RH decreased from 95% RH to 0% RH; for XRPD diffractogram after completion of the adsorption/desorption cycle: after full DVS cycle 0% - 95% - 0% RH; for Hygroscopicity: conclusion from moisture sorption test
Procedure: The moisture sorption/desorption behavior of Form A was investigated by Dynamic Vapor Sorption (DVS).
The moisture sorption/desorption behavior of Form B was investigated by Dynamic Vapor Sorption (DVS).
Hygroscopicity was determined using a Surface Measurement Systems DVS instrument. Typically, a sample size of 10-50 mg was loaded into the DVS instrument sample pan and the sample was analyzed on a DVS automated sorption analyzer at 25° C. The relative humidity (RH) was increased from 0% RH to 95% RH. The RH was then decreased in a similar manner to accomplish a full adsorption/desorption cycle.

[6] = Slurry equilibration in solvents at 25° C. or 50° C.; format: physicochemical; conditions: ethyl acetate, heptane, methyl t-butyl ether, toluene
Procedure: Form A was prepared via crystallization of 3-(2,5-dimethyl-4-oxo-4H-quinazolin-3-yl)-piperidine-2,6-dione in several organic solvent systems. Slurry crystallizations were performed by adding an excess of solid 3-(2,5-dimethyl-4-oxo-4H-quinazolin-3-yl)-piperidine-2,6-dione to 2 ml of the desired solvent system, then agitating the resulting mixture for a minimum of 24 hours at a controlled temperature. Upon reaching equilibrium, the solids were filtered, air-dried and characterized. Form A was prepared by slurry crystallization of Form B in each of the following solvents at 25° C.: acetone; acetonitrile; n-butanol; ethanol; methanol; methyl ethyl ketone; 2-propanol; and tetrahydrofuran.
Form B was prepared via crystallization of 3-(2,5-dimethyl-4-oxo-4H-quinazolin-3-yl)-piperidine-2,6-dione in several organic and aqueous solvent systems, including dimethylsulfoxide/water. Slurry crystallizations were performed by adding an excess of solid 3-(2,5-dimethyl-4-oxo-4H-quinazolin-3-yl)-piperidine-2,6-dione to 2 ml of the desired solvent system, then agitating the resulting mixture for a minimum of 24 hours at a controlled temperature. Upon reaching equilibrium, the solids were filtered, air-dried and characterized. Form B was prepared by slurry crystallization of Form A in the following solvents at both 25° C. and 50° C.: water; and ethanol/water (1/1).

[7] = Moisture sorption/desorption by Dynamic Vapor Sorption (DVS); format: physicochemical; conditions: isothermic approximately 23.3° C.; for Mass increase in moisture sorption test: approximately 0% RH to approximately 50% RH (FIG. 5 / FIG. 10); for Total mass increase in moisture sorption test: approximately 0% RH to approximately 95% RH (FIG. 5 / FIG. 10)

Structure (SMILES): Cc1cccc2nc(C)n(C3CCC(=O)NC3=O)c(=O)c12 (single isomer, unassigned) [Form A, 3-(2,5-dimethyl-4-oxo-4H-quinazolin-3-yl)-piperidine-2,6-dione]
- solubility ([1]; 2-propanol, organic solvent or mixture): 210 µg/mL (≈ 736 µM)
- solubility ([1]; absolute ethanol, organic solvent or mixture): 500 µg/mL (≈ 1750 µM)
- solubility ([1]; acetone, organic solvent or mixture): 2070 µg/mL (≈ 7260 µM)
- solubility ([1]; acetonitrile, organic solvent or mixture): 1490 µg/mL (≈ 5220 µM)
- solubility ([1]; ethanol/water (1/1), aqueous with cosolvent or surfactant or cyclodextrin): 180 µg/mL (≈ 631 µM)
- solubility ([1]; ethyl acetate, organic solvent or mixture): 670 µg/mL (≈ 2350 µM)
- solubility ([1]; heptane, organic solvent or mixture): 430 µg/mL (≈ 1510 µM)
- solubility ([1]; methanol, organic solvent or mixture): 1280 µg/mL (≈ 4490 µM)
- solubility ([1]; methyl ethyl ketone, organic solvent or mixture): 1390 µg/mL (≈ 4870 µM)
- solubility ([1]; methyl t-butyl ether, organic solvent or mixture): 420 µg/mL (≈ 1470 µM)
- solubility ([1]; methylene chloride, organic solvent or mixture): 2120 µg/mL (≈ 7430 µM)
- solubility ([1]; n-butanol, organic solvent or mixture): 230 µg/mL (≈ 806 µM)
- solubility ([1]; tetrahydrofuran, organic solvent or mixture): 4570 µg/mL (≈ 16000 µM)
- solubility ([1]; toluene, organic solvent or mixture): 320 µg/mL (≈ 1120 µM)
- solubility ([1]; water): 170 µg/mL (≈ 596 µM)
- Physical stability of the solid form by X-ray powder diffraction [2]: substantially unchanged; also recorded: physically stable
- Stability of slurry ([3]; acetone, acetonitrile, ethanol, heptane, 2-propanol, methyl t-butyl ether, methanol): stable
- Stability of slurry ([3]; water and ethanol/water (1/1)): converted into the Form B crystal form
- Physical stability upon compression by X-ray powder diffraction [4]: substantially unchanged; also recorded: physically stable
- Mass change relative to the dry mass [5]: 0.7%
- Weight at the end of the desorption cycle [5]: lost all of the weight it had gained; also recorded: loses approximately all of the adsorbed moisture
- XRPD diffractogram after completion of the adsorption/desorption cycle [5]: substantially unchanged
- Hygroscopicity [5]: substantially non-hygroscopic
- Stability when slurried ([6]; 25° C., acetone, acetonitrile, n-butanol, ethanol, methanol, methylene chloride, methyl ethyl ketone, 2-propanol, tetrahydrofuran): stable
- Stability when slurried ([6]; 50° C., acetone, acetonitrile, n-butanol, ethanol, methanol, methyl ethyl ketone, 2-propanol, tetrahydrofuran): stable
- melting point: 292 to 294 °C
- Mass increase in moisture sorption test [7]: approximately 1%
- Total mass increase in moisture sorption test [7]: approximately 4%

Structure (SMILES): Cc1cccc2nc(C)n(C3CCC(=O)NC3=O)c(=O)c12 (single isomer, unassigned) [Form B, 3-(2,5-dimethyl-4-oxo-4H-quinazolin-3-yl)-piperidine-2,6-dione]
- Approximate Solubility ([1]; 2-Propanol): 350 µg/mL
- Approximate Solubility ([1]; Absolute ethanol): 500 µg/mL
- Approximate Solubility ([1]; Acetone): 2560 µg/mL
- Approximate Solubility ([1]; Acetonitrile): 1400 µg/mL
- Approximate Solubility ([1]; Ethanol/Water (1/1)): 280 µg/mL
- Approximate Solubility ([1]; Ethyl acetate): 1160 µg/mL
- Approximate Solubility ([1]; Heptane): 440 µg/mL
- Approximate Solubility ([1]; Methanol): 1310 µg/mL
- Approximate Solubility ([1]; Methyl ethyl ketone): 1570 µg/mL
- Approximate Solubility ([1]; Methyl t-butyl ether): 430 µg/mL
- Approximate Solubility ([1]; Methylene chloride): 1630 µg/mL
- Approximate Solubility ([1]; Tetrahydrofuran): 4710 µg/mL
- Approximate Solubility ([1]; Toluene): 200 µg/mL
- Approximate Solubility ([1]; Water): 100 µg/mL
- Approximate Solubility ([1]; n-Butanol): 340 µg/mL
- Physical stability of the solid form by X-ray powder diffraction [2]: substantially unchanged; also recorded: physically stable
- Stability of slurry ([3]; 2-propanol): converted to a mixture of Forms A and B
- Stability of slurry ([3]; acetone, acetonitrile, ethanol and methanol): converted into the Form A crystal form
- Stability of slurry ([3]; heptane, methyl t-butyl ether, water, ethanol/water (1/1)): stable
- Physical stability upon compression by X-ray powder diffraction [4]: substantially unchanged; also recorded: physically stable
- Mass change relative to the dry mass [5]: 2.9%
- Weight at the end of the desorption cycle [5]: lost all of the weight it had gained; also recorded: loses approximately all of the adsorbed moisture
- XRPD diffractogram after completion of the adsorption/desorption cycle [5]: substantially unchanged
- Hygroscopicity [5]: substantially non-hygroscopic
- Stability when slurried ([6]; 25° C., methylene chloride, water, ethanol/water (1/1)): stable
- Mass increase in moisture sorption test [7]: approximately 1.5%
- Total mass increase in moisture sorption test [7]: approximately 3%
